Test [1] has as its target T1, ATP13A2 (Homo sapiens, UniProt Q9NQ11).
T1 construct: full-length, N-terminal Xpress-tag, membrane fractions of transfected HEK293 cells
T1 sequence (Q9NQ11 1-1180): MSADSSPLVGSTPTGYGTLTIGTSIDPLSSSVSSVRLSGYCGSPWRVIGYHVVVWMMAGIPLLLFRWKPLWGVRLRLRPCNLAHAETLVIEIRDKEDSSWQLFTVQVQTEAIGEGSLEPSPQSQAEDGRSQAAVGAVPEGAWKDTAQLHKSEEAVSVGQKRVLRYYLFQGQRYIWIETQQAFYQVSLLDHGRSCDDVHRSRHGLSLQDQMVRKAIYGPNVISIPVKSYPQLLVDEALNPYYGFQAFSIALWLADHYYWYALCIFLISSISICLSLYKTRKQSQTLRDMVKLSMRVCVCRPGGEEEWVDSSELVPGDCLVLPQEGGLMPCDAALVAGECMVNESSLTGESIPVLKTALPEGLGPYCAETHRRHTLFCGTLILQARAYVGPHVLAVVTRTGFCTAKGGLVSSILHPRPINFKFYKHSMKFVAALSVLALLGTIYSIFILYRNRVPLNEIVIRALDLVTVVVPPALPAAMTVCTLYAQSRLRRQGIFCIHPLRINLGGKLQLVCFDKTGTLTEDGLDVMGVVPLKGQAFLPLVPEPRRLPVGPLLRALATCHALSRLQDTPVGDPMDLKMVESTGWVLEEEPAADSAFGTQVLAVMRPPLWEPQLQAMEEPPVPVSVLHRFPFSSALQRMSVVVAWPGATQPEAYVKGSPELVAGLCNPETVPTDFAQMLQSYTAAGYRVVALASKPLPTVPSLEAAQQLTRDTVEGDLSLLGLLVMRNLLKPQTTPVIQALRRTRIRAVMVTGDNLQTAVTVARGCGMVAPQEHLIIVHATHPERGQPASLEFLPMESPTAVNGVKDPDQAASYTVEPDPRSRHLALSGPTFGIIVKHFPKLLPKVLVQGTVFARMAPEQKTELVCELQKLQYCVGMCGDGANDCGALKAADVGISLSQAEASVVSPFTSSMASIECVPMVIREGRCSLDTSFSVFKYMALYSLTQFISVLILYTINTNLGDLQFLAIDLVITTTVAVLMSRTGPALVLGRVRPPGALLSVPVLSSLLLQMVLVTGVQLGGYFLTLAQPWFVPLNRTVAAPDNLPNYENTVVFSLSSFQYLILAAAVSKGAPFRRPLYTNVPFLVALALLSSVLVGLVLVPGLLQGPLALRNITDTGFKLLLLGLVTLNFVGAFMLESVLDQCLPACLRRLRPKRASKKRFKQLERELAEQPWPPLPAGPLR
Put plainly: ΔTG-sensitive ATPase activity in membrane fractions, mock control; […]+ efflux. The class given is biochemical.

The target of test [2] is T1, ATP13A2. The experiment in a line: ΔTG-sensitive ATPase activity in membrane fractions, mock control; […]+ efflux; siRNA knockdown in SH-SY5Y. Type of test: biochemical.

This passage reports IC50 results from article PMC10119128, “Parkinson’s disease-associated ATP13A2/PARK9 functions as a lysosomal H^+,K^+-ATPase” (Nature Communications, 2023).

Broadly, the IC50 is the concentration that gives 50% inhibition. Read a low IC50 as greater potency in that assay.

Compound `CO/C1=C\C(C)=C\[C@@H](C)[C@@H](O)[C@@H](C)C/C(C)=C/C=C/[C@H](OC)[C@@H]([C@@H](C)[C@@H](O)[C@H](C)[C@@]2(O)C[C@@H](O)[C@H](C)[C@@H](C(C)C)O2)OC1=O` [bafilomycin A1] gave a half-inhibitory concentration (IC50) on ATP13A2 [1] of 0.5 nM.

The compound `CNCc1cc(-c2ccccc2F)n(S(=O)(=O)c2cccnc2)c1` [vonoprazan] yielded an IC50 against ATP13A2 [2] of 800 nM.

Compound `Cc1nc2c(OCc3ccccc3)cccn2c1CC#N` [SCH28080] registered an IC50 against ATP13A2 [2] of 1200 nM.
